We go through 68 compounds from publication PMC7802075 (ACS Infectious Diseases, 2020).

The test addresses T1, LmjIPCS (inositol phosphorylceramide synthase from L. major) (Leishmania major, UniProt E9AFX2).
T1 sequence (E9AFX2 1-338): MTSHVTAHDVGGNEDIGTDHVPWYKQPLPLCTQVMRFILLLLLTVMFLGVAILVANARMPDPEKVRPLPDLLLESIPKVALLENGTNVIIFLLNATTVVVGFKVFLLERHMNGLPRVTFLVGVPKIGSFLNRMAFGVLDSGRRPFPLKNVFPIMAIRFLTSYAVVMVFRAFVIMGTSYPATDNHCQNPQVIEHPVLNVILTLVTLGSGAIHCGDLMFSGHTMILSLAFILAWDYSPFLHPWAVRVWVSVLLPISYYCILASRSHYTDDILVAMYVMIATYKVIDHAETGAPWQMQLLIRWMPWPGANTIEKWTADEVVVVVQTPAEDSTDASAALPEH
The test can be described thus: biochemical. The settings on record: for inhibition: read-out: inhibition LmjIPCS; for inhibition at 20000 µM: read-out: 20mM inhibition LmjIPCS. It is filed as biochemical. The arrangement: inhibition: dose or concentration left out as unconfirmed.

[1] abbreviates: NINDS set screen, single concentration printed as 20mM.
Where [2] appears, read: screening of NINDS set, sheet Screen 1.

Like-named read-outs stand apart in the source and are kept apart here.

Turning to `O=C(O)CCCCCCCC(=O)O` [AZELAIC ACID], the “20mM inhibition LmjIPCS” value under setting [1] was 38%.

Regarding `CCN1CCCC1CNC(=O)c1cc(S(N)(=O)=O)ccc1OC` (centres unmarked) [SULPIRIDE], the “20mM inhibition LmjIPCS” value was found to be 43%.

The inhibition is the drop in the measured response relative to a control, in per cent. `COc1cc(C(=O)NCc2ccc(OCCN(C)C)cc2)cc(OC)c1OC` [TRIMETHOBENZAMIDE]: the inhibition (NINDS set screen) is 28%.

In the case of `NCCCC[C@H](N[C@@H](CCc1ccccc1)C(=O)O)C(=O)N1CCC[C@H]1C(=O)O` [LISINOPRIL], the inhibition is 6%.

As for `O=C(Cn1ccnc1[N+](=O)[O-])NCCO` [ETANIDAZOLE], the inhibition at 20000 µM stood at 3.58%.

For the compound `COc1ccc2cc([C@H](C)CO)ccc2c1` [NAPROXOL], under setting [2], the inhibition stood at 4.4%.

Regarding `O=C(OCC(O)CO)c1ccccc1Nc1ccnc2cc(Cl)ccc12` (centres unmarked) [GLAFENINE], the inhibition at 20000 µM is -16%.

For `CC(=O)N1CCN(c2ccc(OCC3COC(Cn4ccnc4)(c4ccc(Cl)cc4Cl)O3)cc2)CC1` (centres unmarked) [KETOCONAZOLE], the “20mM inhibition LmjIPCS” value was found to be 69%.

As to `CC1(C)O[C@@H]2C[C@H]3[C@@H]4C[C@H](F)C5=CC(=O)C=C[C@]5(C)[C@H]4[C@@H](O)C[C@]3(C)[C@]2(C(=O)CO)O1` [FLUNISOLIDE], the inhibition at 20000 µM was -10%.

Turning to `N.N.O=C([O-])C1(C(=O)[O-])CCC1.[Pt+2]` [CARBOPLATIN], the “20mM inhibition LmjIPCS” value (NINDS set screen, compound at 20mM (so in the source)) amounted to 16%.

In the case of `O=C(O)c1cccnc1` [NIACIN], the inhibition at 20000 µM stood at 15%.

For the compound `N=C(N)N` [GUANIDINE], the “20mM inhibition LmjIPCS” value came out at 20%.

On to `COc1ccc(C(CN(C)C)C2(O)CCCCC2)cc1` (centres unmarked) [VENLAFAXINE], for which the inhibition at 20000 µM is 26%.

On to `NC(Cn1ccc(=O)c(O)c1)C(=O)O` (centres unmarked) [MIMOSINE], for which the inhibition at 20000 µM came to 3%.

Regarding `C[C@]12CC[C@@H]3c4ccc(O)cc4CC[C@H]3[C@@H]1C[C@@H](O)[C@@H]2O` [ESTRIOL], the inhibition was 1.42%.

`COc1ccc(NS(=O)(=O)c2ccc(N)cc2)nn1` [SULFAMETHOXYPYRIDAZINE]: the inhibition was -15%.

As to `Cc1ncc([N+](=O)[O-])n1CC(C)O` (centres unmarked) [SECNIDAZOLE], the inhibition at 20000 µM worked out at 12%.

On to `CN(C)c1ccc(C(=C2C=CC(=[N+](C)C)C=C2)c2ccc(N(C)C)cc2)cc1` [GENTIAN VIOLET], for which the “20mM inhibition LmjIPCS” value under setting [1] turned out to be 64%.

Turning to `CC(N/C(=N\C#N)Nc1ccncc1)C(C)(C)C` (centres unmarked), the inhibition at 20000 µM turned out to be 12%.

Take `C=CCc1ccc(O)c(OC)c1` [EUGENOL]: the inhibition turned out to be 7%.

As to `Cc1cccc(C)c1N=C1NCCCS1` [XYLAZINE], the inhibition at 20000 µM was -14%.

Consider `O=C(O)CCCc1ccccc1` [PHENYLBUTYRATE], for which the inhibition at 20000 µM came to 1.15%.

For the compound `CC(=O)c1c(O)c(C)c(O)c2c1OC1=CC(=O)C(C(C)=O)C(=O)C12C` (centres unmarked) [USNIC ACID], the inhibition at 20000 µM was found to be 29%.

Regarding `CC(=O)O[C@]1(C(C)=O)CC[C@H]2[C@@H]3C=C(C)C4=CC(=O)CC[C@]4(C)[C@H]3CC[C@@]21C` [MEGESTROL ACETATE], the inhibition at 20000 µM came out at 15%.

Consider `O=C(Cc1cccs1)N[C@@H]1C(=O)N2C(C(=O)[O-])=C(C[n+]3ccccc3)CS[C@H]12` [CEPHALORIDINE], for which the inhibition at 20000 µM was 22%.

For the compound `O=S(=O)(O)CCS` [MESNA], the inhibition at 20000 µM was -0.783%.

For the compound `O=C1c2ccccc2C(=O)c2ccccc21` [ANTHRAQUINONE], the inhibition at 20000 µM worked out at 10%.

For the compound `CC(C)[N+](C)(CCC(C(N)=O)(c1ccccc1)c1ccccc1)C(C)C` [ISOPROPAMIDE], the inhibition turned out to be 11%.

Consider `CS(=O)(=O)c1ccc(C2=C(c3ccccc3)C(=O)OC2)cc1` [ROFECOXIB], for which the inhibition (NINDS set screen) is -2%.

For `CC(C)NCC(O)COc1cccc2[nH]ccc12` (centres unmarked) [PINDOLOL], the inhibition at 20000 µM was 16%.

As for `COC(=O)/C(=C1/OC(=O)C(c2ccccc2)=C1O)c1ccccc1` [VULPINIC ACID], the inhibition (NINDS set screen) worked out at 13%.

`CCCCC1=NC2(CCCC2)C(=O)N1Cc1ccc(-c2ccccc2-c2nnn[nH]2)cc1` [IRBESARTAN]: the inhibition was found to be 1%.

Regarding `C[N+](C)(C)CCCCCC[N+](C)(C)C` [HEXAMETHONIUM], the inhibition at 20000 µM is -4%.

Consider `O=c1ccc2cc(O[C@@H]3O[C@H](CO)[C@@H](O)[C@H](O)[C@H]3O)c(O)cc2o1` [AESCULIN], for which the “20mM inhibition LmjIPCS” value amounted to 10%.

For `CCCC(=O)O[C@]1(C(=O)CO)CC[C@H]2[C@@H]3CCC4=CC(=O)CC[C@]4(C)[C@H]3[C@@H](O)C[C@@]21C` [HYDROCORTISONE BUTYRATE], the inhibition at 20000 µM is 5.61%.

As to `O=C(O)c1cn(C2CC2)c2cc(N3CCNCC3)c(F)cc2c1=O` [CIPROFLOXACIN], the inhibition at 20000 µM is 3%.

Consider `O=C1NS(=O)(=O)c2ccccc21` [SACCHARIN], for which the inhibition at 20000 µM is 3.67%.

As to `C#C[C@]1(O)CC[C@H]2[C@@H]3CCC4=Cc5oncc5C[C@]4(C)[C@H]3CC[C@@]21C` [DANAZOL], the inhibition came to 19%.

For `Cc1cc(CC(=O)O)n(C)c1C(=O)c1ccc(Cl)cc1` [ZOMEPIRAC], the inhibition at 20000 µM stood at 10%.

`CN1C(C(=O)Nc2ccccn2)=C(O)c2ccccc2S1(=O)=O` [PIROXICAM]: the inhibition worked out at 15%.

For the compound `CCCc1ncc(C[n+]2ccccc2C)c(N)n1` [AMPROLIUM], the “20mM inhibition LmjIPCS” value came out at 44%.

In the case of `Nc1nccs1` [AMINOTHIAZOLE], the inhibition at 20000 µM is -32%.

`[H]/N=C(/N)N[C@H]1[C@H](O)[C@@H](O)[C@H](O[C@@H]2O[C@@H](C)[C@](O)(C=O)[C@H]2O[C@@H]2O[C@@H](CO)[C@H](O)[C@@H](O)[C@@H]2NC)[C@@H](N/C(N)=N\[H])[C@@H]1O` [STREPTOMYCIN]: the inhibition is -0.116%.

For `CC(=O)[C@H]1CC[C@H]2[C@@H]3C[C@H](C)C4=CC(=O)CC[C@]4(C)[C@H]3[C@@H](O)C[C@]12C` [MEDRYSONE], the inhibition at 20000 µM was determined as 14%.

On to `CC(=O)NO` [ACETOHYDROXAMIC ACID], for which the “20mM inhibition LmjIPCS” value under setting [1] is reported as 34%.

As to `O=c1oc2c(O)c(O)cc3c(=O)oc4c(O)c(O)cc1c4c23` [ELLAGIC ACID], the inhibition (NINDS set screen) was 22%.

As for `NS(=O)(=O)c1cc(C(=O)O)c(NCc2ccco2)cc1Cl` [FUROSEMIDE], the inhibition at 20000 µM was determined as 5%.

For the compound `COc1c2ccoc2cc2oc(=O)ccc12` [BERGAPTEN], the inhibition is 17%.

For `C[C@@H]1O[C@@H](O[C@H]2C[C@@H](O)[C@]3(CO)[C@H]4[C@H](O)C[C@]5(C)[C@@H](C6=CC(=O)OC6)CC[C@]5(O)[C@@H]4CC[C@]3(O)C2)[C@H](O)[C@H](O)[C@H]1O` [OUABAIN], the inhibition at 20000 µM is 1.15%.

Consider `C=N[C@@H](C(=O)N[C@@H]1C(=O)N2[C@@H]1SC(C)(C)[C@@H]2C(=O)O)c1ccccc1` [METAMPICILLIN], for which the inhibition under setting [2] was determined as 10%.

In the case of `CC(C)(C)NCC(O)c1cc(O)cc(O)c1` (centres unmarked) [TERBUTALINE], the inhibition under setting [2] was found to be 9%.

`CC1=NN(c2ccccc2)C(=O)C1` [3-METHYL-1-PHENYL-2-PYRAZOLIN-5-ONE]: the “20mM inhibition LmjIPCS” value is listed as 4.33%.

Regarding `Oc1c(Cl)cc(Cl)c(Cl)c1Cc1c(O)c(Cl)cc(Cl)c1Cl` [HEXACHLOROPHENE], the “20mM inhibition LmjIPCS” value is recorded as 41%.

Take `CCN(CC)CCOC(=O)C(c1ccccc1)c1ccccc1` [ADIPHENINE]: under setting [1], the “20mM inhibition LmjIPCS” value was determined as 51%.

With `Cc1ccc(S(=O)(=O)NC(=O)NN2CC3CCCC3C2)cc1` (centres unmarked) [GLICLAZIDE], the inhibition at 20000 µM amounted to 14%.

Consider `CC(C)NCC(O)c1ccc2ccccc2c1` (centres unmarked) [PRONETALOL], for which, under setting [1], the “20mM inhibition LmjIPCS” value was found to be 60%.

Consider `NC(=O)c1ccc(N)nc1` [6-AMINONICOTINAMIDE], for which the inhibition at 20000 µM worked out at 7.54%.

With `O=C(O)c1ccc(S(=O)(=O)N(Cl)Cl)cc1` [HALAZONE], the inhibition under setting [2] amounted to 10%.

For `C=CC1=C(C(=O)O)N2C(=O)[C@@H](NC(=O)/C(=N\O)c3csc(N)n3)[C@H]2SC1`, the inhibition at 20000 µM is 9%.

Regarding `C[C@@H]1[C@H](O)[C@@H](C)/C=C/C=C/CC/C=C/C=C/C=C/C=C/C(O[C@H]2O[C@H](C)[C@@H](O)[C@H](N)[C@@H]2O)CC2O[C@](O)(CC(O)C(O)CCC(O)CC(O)CC(O)CC(=O)O[C@H]1C)CC(O)C2C(=O)O` (some centres unmarked) [NYSTATIN], the “20mM inhibition LmjIPCS” value stood at 32%.

In the case of `Cc1ccc(C(=O)c2ccc(CC(=O)O)n2C)cc1` [TOLMETIN], the inhibition at 20000 µM was 4%.

`CC(=O)O[C@]1(C(C)=O)CC[C@H]2[C@@H]3C[C@H](C)C4=CC(=O)CC[C@]4(C)[C@H]3CC[C@@]21C` [MEDROXYPROGESTERONE ACETATE]: the inhibition (NINDS set screen) came out at 17%.

As for `CC[C@H]1OC(=O)[C@H](C)C(=O)[C@H](C)[C@@H](O[C@@H]2O[C@H](C)C[C@H](N(C)C)[C@H]2O)[C@](C)(OC)C[C@@H](C)C(=O)[C@H](C)[C@H]2N(CCCCn3cnc(-c4cccnc4)c3)C(=O)O[C@]12C` [TELITHROMYCIN], the inhibition at 20000 µM turned out to be 3.66%.

Consider `Cc1cccc(N(C)C(=S)Oc2ccc3ccccc3c2)c1` [TOLNAFTATE], for which the “20mM inhibition LmjIPCS” value is 62%.

As for `Cc1cnc(NC(=O)C2=C(O)c3ccccc3S(=O)(=O)N2C)s1` [MELOXICAM], the inhibition is 11%.

Regarding `CC1=C(/C=C/C(C)=C/C=C/C(C)=C/C=C/C=C(C)/C=C/C=C(C)/C=C/C2=C(C)CCCC2(C)C)C(C)(C)CCC1` [beta-CAROTENE], the “20mM inhibition LmjIPCS” value is 45%.

In the case of `O=C(CCCCCCCCCCCCC1CCCC1)Nc1ccc(S(=O)(=O)c2ccc(NC(=O)CCCCCCCCCCCCC3CCCC3)cc2)cc1` [CHAULMOSULFONE], the inhibition (NINDS set screen) stood at 32%.

As to `OCCN1C[C@H](O)[C@@H](O)[C@H](O)[C@H]1CO` [MIGLITOL], the inhibition at 20000 µM is -0.821%.
